Laboratory results from patent US20100292184A1, “17BETA-CYANO-19-ANDROST-4-ENE DERIVATIVE, ITS USE AND MEDICAMENTS COMPRISING THE DERIVATIVE” (BAYER SCHERING PHARMA AG, priority 2007, published 2010).
Where two headings read alike, the source gives them in different places.

What was measured:
[1] = molecular target: T1, mineralcorticoid receptor (Homo sapiens, UniProt P08235); assay: MR antagonism luciferase reporter cell line assay; assay type: cell-based
T1 sequence (P08235 1-984): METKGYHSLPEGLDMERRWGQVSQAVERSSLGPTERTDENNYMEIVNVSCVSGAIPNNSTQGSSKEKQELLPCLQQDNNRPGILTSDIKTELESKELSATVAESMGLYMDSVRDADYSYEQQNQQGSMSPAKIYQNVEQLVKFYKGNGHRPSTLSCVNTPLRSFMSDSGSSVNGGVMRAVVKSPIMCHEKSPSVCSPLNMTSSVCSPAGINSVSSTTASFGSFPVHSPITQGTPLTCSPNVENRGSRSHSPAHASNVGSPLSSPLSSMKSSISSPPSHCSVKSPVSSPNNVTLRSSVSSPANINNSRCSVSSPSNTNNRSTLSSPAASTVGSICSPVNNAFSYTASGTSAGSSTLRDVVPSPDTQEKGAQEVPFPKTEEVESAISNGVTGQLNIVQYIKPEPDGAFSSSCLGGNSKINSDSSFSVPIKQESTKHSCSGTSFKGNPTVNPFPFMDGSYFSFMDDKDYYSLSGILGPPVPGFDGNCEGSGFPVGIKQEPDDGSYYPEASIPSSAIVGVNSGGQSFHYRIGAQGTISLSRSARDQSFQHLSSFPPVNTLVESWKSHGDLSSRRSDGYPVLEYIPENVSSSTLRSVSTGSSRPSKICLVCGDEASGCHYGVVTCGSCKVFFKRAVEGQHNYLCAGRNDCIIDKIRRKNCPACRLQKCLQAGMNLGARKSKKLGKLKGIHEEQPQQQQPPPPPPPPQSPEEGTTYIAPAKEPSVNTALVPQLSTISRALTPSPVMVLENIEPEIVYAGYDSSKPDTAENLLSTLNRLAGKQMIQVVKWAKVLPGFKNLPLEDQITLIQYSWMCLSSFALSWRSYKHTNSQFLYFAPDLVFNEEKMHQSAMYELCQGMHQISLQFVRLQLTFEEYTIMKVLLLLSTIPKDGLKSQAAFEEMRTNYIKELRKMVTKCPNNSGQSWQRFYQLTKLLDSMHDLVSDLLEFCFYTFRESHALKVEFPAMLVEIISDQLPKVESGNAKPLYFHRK
Method: The derivatives according to the invention having the general chemical formula have a very strong gestagenic activity. […] They should therefore have in vivo potassium-retaining, natriuretic (antimeralcorticoid) action. These properties were determined using the test described below:
For the culturing of the cells used for the assay, the culture medium used was DMEM (Dulbecco's Modified Eagle Medium: […] of glucose; PAA, #E15-009) with 10% FCS (Biochrom, S0115, batch #615B), 4 mM L-glutamine, 1% penicillin/streptomycin, 1 mg/ml of G418 and 0.5 μg/ml of puromycin.
Reporter cell lines were grown in a density of 4×10^4 cells per hollow in white, nontransparent tissue culture plates in each case having 96 hollows (PerkinElmer, #P12-106-017) and kept in 6% DCC-FCS (activated carbon-treated serum, for the removal of interfering components contained in the serum). The compounds to be investigated were added eight days later, and the cells were incubated with the compounds for 16 hours. The experiments were carried out in triplicate. At the end of the incubation, the effector-containing medium was removed and replaced by lysis buffer. After luciferase assay substrate (promega, #E1501) had been added, the plates containing the 96 hollows were then introduced into a microplate luminometer (Pherastar, BMG labtech), and the luminescence was measured. The […] values were evaluated using software for the calculation of dose-activity relationships.

[2] = molecular target: T2, PR (Rattus norvegicus, UniProt Q63449); assay: maintenance of pregnancy test on the rat; assay type: in vivo; settings: ovarectomized pregnant rats; for PR in vivo ED50 (pregnancy-maintaining dose): s.c. once daily from day 8 to day 15 or 21, with oestrone 5 μg/kg/day
T2 construct: from tissue; host or cells: whole animal: pregnant, ovariectomized rats
T2 sequence (Q63449 1-923): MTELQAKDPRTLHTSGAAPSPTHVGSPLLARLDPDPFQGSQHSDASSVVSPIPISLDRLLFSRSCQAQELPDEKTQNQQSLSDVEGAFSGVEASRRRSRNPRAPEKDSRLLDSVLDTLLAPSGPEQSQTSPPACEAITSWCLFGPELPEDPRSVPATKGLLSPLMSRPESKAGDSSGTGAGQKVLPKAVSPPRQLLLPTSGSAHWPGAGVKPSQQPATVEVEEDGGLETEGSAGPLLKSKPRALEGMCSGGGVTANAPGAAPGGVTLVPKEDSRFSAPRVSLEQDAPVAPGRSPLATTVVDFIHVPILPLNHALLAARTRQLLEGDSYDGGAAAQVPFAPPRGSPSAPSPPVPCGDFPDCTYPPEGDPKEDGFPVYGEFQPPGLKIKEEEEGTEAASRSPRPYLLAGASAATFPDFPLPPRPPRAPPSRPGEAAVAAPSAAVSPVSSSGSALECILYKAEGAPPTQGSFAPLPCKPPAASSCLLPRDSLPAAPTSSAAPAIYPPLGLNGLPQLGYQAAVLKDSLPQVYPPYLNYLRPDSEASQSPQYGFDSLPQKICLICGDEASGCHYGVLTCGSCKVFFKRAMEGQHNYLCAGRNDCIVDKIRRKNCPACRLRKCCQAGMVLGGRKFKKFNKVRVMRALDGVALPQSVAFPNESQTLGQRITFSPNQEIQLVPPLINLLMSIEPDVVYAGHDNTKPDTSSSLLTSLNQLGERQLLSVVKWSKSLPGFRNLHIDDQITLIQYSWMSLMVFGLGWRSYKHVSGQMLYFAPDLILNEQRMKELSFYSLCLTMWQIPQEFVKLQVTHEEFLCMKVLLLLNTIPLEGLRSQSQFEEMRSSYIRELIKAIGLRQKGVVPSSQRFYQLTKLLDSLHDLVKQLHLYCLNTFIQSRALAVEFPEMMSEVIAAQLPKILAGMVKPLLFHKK
Text: Carrying out the maintenance of pregnancy test on the rat:
In pregnant rats, the removal of the corpora lutea or oophorectomy induces an abortion. By means of the exogenous administration of progestins (gestagens) in combination with a suitable dose of an oestrogen, the maintenance of pregnancy is possible. The maintenance of pregnancy test on ovarectomized rats serves for the determination of the peripheral gestagenic activity of a compound.
Rats were paired overnight during proestrus. Pairing was checked on the morning of the following day by the appraisal of a vaginal smear. The presence of the sperm was evaluated here as day 1 of a commencing pregnancy. On day 8 of the pregnancy, the animals were ovarectomized under ether anaesthesia. The treatment with test compound and exogenous oestrogen (oestrone, 5 μg/kg/day) was carried out subcutaneously once daily from day 8 to day 15 or day 21 of the pregnancy. The first administration on day 8 was carried out two hours before oophorectomy. Intact control animals were given exclusively vehicle.
At the end of the experiment (day 15 or day 21), the animals were sacrificed under a CO2 atmosphere, and live foetuses (foetuses having a beating heart) and implantation sites (early resorptions and dead foetuses including autolysis and atrophic placentas) were counted in both uterine horns. On day 22, it was moreover possible to examine foetuses for malformations. In uteri without foetuses or implantation sites, the number of nidation sites was determined by staining with 10% strength ammonium sulphide solution. The maintenance of pregnancy rate was calculated as the quotient of the number of living foetuses and the total number of nidation sites (both resorbed and dead foetuses and nidation sites). For drospirenone, this value is 3.5 mg/kg/day.

[3] = reporter cell lines, 16 hours incubation, luciferase luminescence
[4] = reporter cell lines, 16 hours incubation, luciferase luminescence, read-out: MR Antagonism IC50

Compound | MR Antagonism activity [% of the maximum effect] [1, 3] | IC50 [1, 4] | PR in vivo ED50 (pregnancy-maintaining dose) [2] | IC50 [1] | pregnancy-maintaining dose (ED50) ([2]; subcutaneous, with oestrone 5 μg/kg/day)
C[C@]12CCC(=O)C=C1CC[C@H]1[C@@H]3[C@@H]4C[C@@H]4[C@](C)(C#N)[C@@]3(C)CC[C@@H]12 [17β-Cyano-17α-methyl-15β,16β-methyleneandrost-4-en-3-one] | 98.30 % of the maximum effect | 42 nM | 10.0 mg/kg/d s.c. | – | –
C[C@]12CC[C@H]3[C@@H](CC4(CC4)C4=CC(=O)CC[C@@]43C)[C@@H]1CC[C@@H]2C#N | 99.16 % of the maximum effect | – | 25.0 mg/kg/d s.c. | 20 nM | –
C[C@]12CC[C@H]3[C@@H]([C@H]4C[C@H]4C4=CC(=O)CC[C@@]43C)[C@@H]1[C@@H]1C[C@@H]1[C@@H]2C#N [6β,7β-15β,16β-Bismethylene-17β-cyanoandrost-4-en-3-one] | 98.06 % of the maximum effect | – | 7.3 mg/kg/d s.c. | 4.7 nM | –
C=CC[C@]1(C#N)CC[C@H]2[C@@H]3CCC4=CC(=O)CC[C@]4(C)[C@H]3CC[C@@]21C [17α-Allyl-17β-cyanoandrost-4-en-3-one] | 65.30 % of the maximum effect | 990 nM | – | – | –
C[C@]12CCC(=O)C=C1[C@@H]1C[C@@H]1[C@H]1[C@@H]3[C@@H]4C[C@@H]4[C@@]4(CCC(=O)O4)[C@@]3(C)CC[C@@H]12 [drospirenone, 6β,7β-15β,16β-dimethylene-3-oxo-17-pregn-4-ene-21,17β-carbolactone, reference compound] | – | – | – | – | 3.5 mg/kg/day
